Reference: patent publication US20120270929A1, “MODULATION OF TTC39 EXPRESSION TO INCREASE HDL” (ISIS Pharmaceuticals, Inc., priority 2009, published 2012)

Tests used:
Type in all cases: in vivo, mouse
[1] = system: Sterol O-acyltransferase 2 (Soat2) mRNA; test: PCR microarray analysis of liver, LDLr-/- mice: Soat2; conditions: 50 mg/kg, 6 weeks
Description: (§1) Four groups of five male mice each were injected with a total of 1.5, 5, 15, or 50 mg/kg/week of ISIS 447118 for 6 weeks. A group of five mice was injected with a total of 50 mg/kg/week of control oligonucleotide ISIS 141923 ([…], designated herein as SEQ ID NO: 112, which has no known murine target) for 6 weeks. A control group of five mice was injected with phosphate buffered saline (PBS) twice a week for 6 weeks. Plasma samples were obtained before the start of treatment, at week 3 and at week 6. At the end of the treatment period, the mice were euthanized. Plasma and tissue samples were obtained for further analysis.
(§2) Liver samples from the mice groups were analyzed using a commercial kit for PCR microarray analysis (SA Biosciences Corp., MD), according to the manufacturer's instructions. Genes involved in lipoprotein and cholesterol metabolism were compared with the PBS control.

[2] = system: Apolipoprotein A-IV (ApoA4) mRNA; test: PCR microarray analysis of liver, LDLr-/- mice: ApoA4; conditions: 50 mg/kg, 6 weeks
Description: as §1, §2

[3] = system: Mevalonate (diphospho) decarboxylase (Mvd) mRNA; test: PCR microarray analysis of liver, LDLr-/- mice: Mvd; conditions: 50 mg/kg, 6 weeks
Description: as §1, §2

[4] = system: Farnesyl diphosphate synthetase (Fdps) mRNA; test: PCR microarray analysis of liver, LDLr-/- mice: Fdps; conditions: 50 mg/kg, 6 weeks
Description: as §1, §2

Stabilin 1 (Stab1) mRNA = test: PCR microarray analysis of liver, LDLr-/- mice: Stab1; conditions: 50 mg/kg, 6 weeks
Description: as §1, §2

[5] = system: Low density lipoprotein receptor (Ldlr) mRNA; test: PCR microarray analysis of liver, LDLr-/- mice: Ldlr; conditions: 50 mg/kg, 6 weeks
Description: as §1, §2

[6] = system: Insulin induced gene 1 (Insig1) mRNA; test: PCR microarray analysis of liver, LDLr-/- mice: Insig1; conditions: 50 mg/kg, 6 weeks
Description: as §1, §2

[7] = system: Proprotein convertase subtilisin/kexin type 9 (Pcsk9) mRNA; test: PCR microarray analysis of liver, LDLr-/- mice: Pcsk9; conditions: 50 mg/kg, 6 weeks
Description: as §1, §2

[8] = system: Oxysterol binding protein-like 5 (Osbpl5) mRNA; test: PCR microarray analysis of liver, LDLr-/- mice: Osbpl5; conditions: 50 mg/kg, 6 weeks
Description: as §1, §2

[9] = Plasma cholesterol and triglycerides in LDLr-/- mice; conditions: 50 mg/kg/week
Description: The LDLr knockout mice model is a model for familial hypercholesterolemia developed by Ishibashi et al (J Clin Invest 1993; 92: 883-893). On a normal chow diet, the mice have an average total cholesterol of 250 mg/dL due to increases in LDL and VLDL cholesterol. This model is therefore highly susceptible to atherosclerosis (Ishibashi et al Proc Natl Acad Sci USA 1994; 91: 4431-4435).
as §1
To investigate the effect of inhibition of TTC39B on triglycerides and cholesterol levels in the plasma, samples were collected on weeks 0, 3, and 6, and total plasma cholesterol, LDL cholesterol, HDL cholesterol, and triglycerides were analyzed on an Olympus AU400e Analyzer.

CCTTCCCTGAAGGTTCCTCC (chemistry not given here) [ISIS 141923, reference compound]
Soat2 fold increase/decrease relative to PBS group [1]: 0.95 fold
ApoA4 fold increase/decrease relative to PBS group [2]: 0.87 fold
Mvd fold increase/decrease relative to PBS group [3]: 1.25 fold
Fdps fold increase/decrease relative to PBS group [4]: 1.21 fold
Stab1 fold increase/decrease relative to PBS group (Stabilin 1 (Stab1) mRNA): 1.12 fold
Ldlr fold increase/decrease relative to PBS group [5]: 1.36 fold
Insig1 fold increase/decrease relative to PBS group [6]: 1.13 fold
Pcsk9 fold increase/decrease relative to PBS group [7]: 1.09 fold
Osbpl5 fold increase/decrease relative to PBS group [8]: 1.21 fold
HDL cholesterol % increase on week 6 (% change over baseline) [9]: 43%
HDL cholesterol levels ([9]; Week 0 (before treatment)): 76 mg/dL
LDL cholesterol levels ([9]; Week 0 (before treatment)): 100 mg/dL
total cholesterol levels ([9]; Week 0 (before treatment)): 206 mg/dL
triglyceride levels ([9]; Week 0 (before treatment)): 97 mg/dL
HDL cholesterol levels ([9]; Week 3): 78 mg/dL
LDL cholesterol levels ([9]; Week 3): 100 mg/dL
total cholesterol levels ([9]; Week 3): 204 mg/dL
triglyceride levels ([9]; Week 3): 116 mg/dL
HDL cholesterol levels ([9]; Week 6): 108 mg/dL
LDL cholesterol levels ([9]; Week 6): 112 mg/dL
total cholesterol levels ([9]; Week 6): 227 mg/dL
triglyceride levels ([9]; Week 6): 143 mg/dL
